Data set [1] can be described thus: Secondary structure estimation from CD spectra. The data set is classed as physicochemical. The settings on record: KF/phosphate buffer pH 7.4, 20 µM, Reed's reference set. As to the method:
Circular dichroism (CD) spectra were measured in a J-810 CD spectrometer (Jasco, Japan) in step mode (bandwidth: 2 nm; interval: 0.1 nm; response time: 0.125 s). The spectra were averaged over 3 scans to increase the signal to noise ratio. To optimize the measurements, a 1 cm×0.2 cm mini-quartz cell with four windows (Hellema, Germany) was used in such a way that the spectra from 260 to 200 nm were measured with a 1 cm pathlength and those between 220 and 185 nm with 0.2 cm pathlength. After normalization for pathlength (1 cm), the superimposition of two separated spectra in the 200–220 nm region was verified and the entire spectra reconstituted. The temperature of measurement was controlled with a Peltier-effect temperature controller, and was usually 20°C. The structural stability of peptides was studied by measuring the variation in CD signal at 220 nm (bandwidth: 10 nm; interval: 1 s; response time: 0.5 s; pathlength: 1 cm) when the temperature was increased by 1°C/min from 20 to 85°C. All the CD experiments were performed with 20 µM peptide under 3 buffer conditions: pure water, 2 mM SDS and 10 mM potassium phosphate pH 7.4 with 200 mM KF.
The secondary structures were estimated from the CD spectra with Jasco secondary structure estimation software. The spectra from […] were decomposed to α-helix, β-sheet, β-turn and random coil elements using either Reed's or Yang's reference set as reference spectrum of each element as described, [38]. We usually obtained better fits using Reed's reference.

Data set [2] relates to T98G human glioblastoma cells. The data set can be described thus: Peptide incorporation into T98G cells (immunocytochemistry, cell counting). Format: cell-based. The settings on record: 6 hours; for Cell penetration / internalization in T98G cells (in words): 10 µM, immunocytochemistry, compared to original NFL-TBS.40-63; for Peptide incorporation (% of cells): T98G cells, 10 µM biotinylated peptide, Alexa-labeled avidin/streptavidin fluorescence microscopy, minimum 200 cells per experiment, mean ± S.E.M., triplicated. A digest of the protocol:
(§1)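 Cells on cover slips were cultured 6 h with 10 μM biotinylated peptide, permeabilized, and stained with anti-β-tubulin plus fluorescent streptavidin. By fluorescence/confocal microscopy, ≥200 cells per experiment were scored for peptide uptake and for a normal versus destroyed microtubule network; at least three repeats.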

Data set [3] concerns T98G human glioblastoma cells. The data set can be described thus: Disintegration of the microtubule network in T98G cells (anti-tubulin immunostaining, cell counting). The settings on record: 6 hours; for Effect on MT network of T98G / glioma cells (in words): 10 µM, immunocytochemistry; for Disintegration of MT (% of cells): T98G cells, 10 µM biotinylated peptide, anti-tubulin immunostaining, minimum 200 cells per experiment, mean ± S.E.M., triplicated. The data set is classed as cell-based. A digest of the protocol: as §1

Data set [4] deals with glioma cells. The settings on record: shown previously; cited from earlier work. From the text: However, contrary to the known CPPs, which are composed mostly of arginines and lysines, the NFL-TBS.40-63 peptide contains only 2 arginine residues and no lysine. […] In addition, the cell penetrating activity appears to correlate with a particular structural pattern.

The structures appear in SMILES notation. Square brackets hold non-standard residues; d marks the D form. Peptide text beside a SMILES is read from it. * marks the point of attachment. Biotin = O=C1N[C@H]2[C@H](CS[C@H]2CCCCC(=O)*)N1; pS = N[C@@H](COP(=O)(O)O)C(=O)O

For `CC(C)C[C@H](NC(=O)[C@H](CO)NC(=O)[C@H](CO)NC(=O)[C@H](CO)NC(=O)[C@@H](NC(=O)[C@@H]1CCCN1C(=O)[C@H](C)NC(=O)[C@H](CO)NC(=O)[C@H](Cc1ccc(O)cc1)NC(=O)[C@H](CO)NC(=O)[C@H](CO)NC(=O)[C@H](Cc1ccc(O)cc1)NC(=O)CCCC[C@@H]1SC[C@@H]2NC(=O)N[C@@H]21)C(C)C)C(=O)N[C@@H](CO)C(=O)N[C@H](C(=O)N[C@@H](CCCNC(=N)N)C(=O)N[C@@H](CCCNC(=N)N)C(=O)N[C@@H](CO)C(=O)N[C@@H](Cc1ccc(O)cc1)C(=O)N[C@@H](COP(=O)(O)O)C(=O)N[C@@H](CO)C(=O)N[C@@H](CO)C(=O)N[C@@H](CO)C(=O)NCC(=O)N[C@@H](CO)C(N)=O)C(C)C` [Ser19SerP] (Biotin-YSSYSAPVSSSLSVRRSY[pS]SSSGS-NH2), in data set [1], the random coil content is 60% and the β-sheet content is listed as 34%. Also, in data set [2], the “Cell penetration / internalization in T98G cells (in words)” value is listed as “decreased internalization” and the “Peptide incorporation (% of cells)” value is reported as 27.3±12.1 % of cells. For the same compound, in data set [3], the “Effect on MT network of T98G / glioma cells (in words)” value is reported as “not altered” and the “Disintegration of MT (% of cells)” value is reported as 19.4±2.1 % of cells.
As to `CC(C)C[C@H](NC(=O)[C@H](CO)NC(=O)[C@H](CO)NC(=O)[C@H](CO)NC(=O)[C@@H](NC(=O)[C@@H]1CCCN1C(=O)[C@H](C)NC(=O)[C@H](CO)NC(=O)[C@H](Cc1ccc(O)cc1)NC(=O)[C@H](CO)NC(=O)[C@H](CO)NC(=O)[C@H](Cc1ccc(O)cc1)NC(=O)CCCC[C@@H]1SC[C@@H]2NC(=O)N[C@@H]21)C(C)C)C(=O)N[C@@H](CO)C(=O)N[C@H](C(=O)N[C@@H](CCCNC(=N)N)C(=O)N[C@@H](CCCNC(=N)N)C(=O)N[C@@H](COP(=O)(O)O)C(=O)N[C@@H](Cc1ccc(O)cc1)C(=O)N[C@@H](CO)C(=O)N[C@@H](CO)C(=O)N[C@@H](CO)C(=O)N[C@@H](CO)C(=O)NCC(=O)N[C@@H](CO)C(N)=O)C(C)C` [Ser17SerP] (Biotin-YSSYSAPVSSSLSVRR[pS]YSSSSGS-NH2), in data set [1], the random coil content was 53% and the β-sheet content is 40%. In data set [2], the “Cell penetration / internalization in T98G cells (in words)” value is listed as “decreased internalization” and the “Peptide incorporation (% of cells)” value was 32.8±8.7 % of cells. For the same compound, in data set [3], the “Effect on MT network of T98G / glioma cells (in words)” value is recorded as “not altered” and the “Disintegration of MT (% of cells)” value is given as 22.9±1.3 % of cells.
For the compound `CC(C)C[C@H](NC(=O)[C@H](CO)NC(=O)CCCC[C@@H]1SC[C@@H]2NC(=O)N[C@@H]21)C(=O)NCC(=O)N[C@@H](CO)C(=O)N1CCC[C@H]1C(=O)N[C@@H](CO)C(=O)N[C@@H](CO)C(=O)N[C@@H](CO)C(=O)N[C@H](C(=O)N[C@@H](CCCNC(=N)N)C(=O)N[C@@H](C)C(=O)N[C@@H](CO)C(=O)N[C@@H](Cc1ccc(O)cc1)C(=O)N[C@@H](CO)C(=O)N[C@@H](CO)C(=O)N[C@@H](CO)C(=O)N[C@@H](CCCNC(=N)N)C(=O)N[C@@H](CO)C(=O)N[C@@H](Cc1ccc(O)cc1)C(=O)N[C@H](C(=O)N[C@@H](Cc1ccc(O)cc1)C(=O)N[C@@H](CO)C(=O)N[C@@H](CO)C(=O)N[C@@H](CO)C(N)=O)C(C)C)C(C)C` [NFL-SCR, reference compound] (Biotin-SLGSPSSSVRASYSSSRSYVYSSS-NH2), the “Cell penetration / internalization (in words)” value in data set [4] is given as “do not penetrate in cells”. In addition, in data set [3], the “Disintegration of MT (% of cells)” value is given as 18.18±3.2 % of cells.
In the case of `CC(C)C[C@H](NC(=O)[C@H](CO)NC(=O)[C@H](CO)NC(=O)[C@H](CO)NC(=O)[C@@H](NC(=O)[C@@H]1CCCN1C(=O)[C@H](C)NC(=O)[C@H](CO)NC(=O)[C@H](C)NC(=O)[C@H](CO)NC(=O)[C@H](CO)NC(=O)[C@H](Cc1ccc(O)cc1)NC(=O)CCCC[C@@H]1SC[C@@H]2NC(=O)N[C@@H]21)C(C)C)C(=O)N[C@@H](CO)C(=O)N[C@H](C(=O)N[C@@H](CCCNC(=N)N)C(=O)N[C@@H](CCCNC(=N)N)C(=O)N[C@@H](CO)C(=O)N[C@@H](Cc1ccc(O)cc1)C(=O)N[C@@H](CO)C(=O)N[C@@H](CO)C(=O)N[C@@H](CO)C(=O)N[C@@H](CO)C(=O)NCC(=O)N[C@@H](CO)C(N)=O)C(C)C` [Tyr4Ala] (Biotin-YSSASAPVSSSLSVRRSYSSSSGS-NH2), in data set [2], the “Peptide incorporation (% of cells)” value is reported as 5.3±2.4 % of cells. Also, in data set [3], the “Disintegration of MT (% of cells)” value is on record as 24.4±4.6 % of cells.
For `CC(C)C[C@H](NC(=O)[C@H](CO)NC(=O)[C@H](CO)NC(=O)[C@H](CO)NC(=O)[C@@H](NC(=O)[C@@H]1CCCN1C(=O)[C@H](C)NC(=O)[C@H](CO)NC(=O)[C@H](Cc1ccc(O)cc1)NC(=O)[C@H](CO)NC(=O)[C@H](CO)NC(=O)[C@H](Cc1ccc(O)cc1)NC(=O)CCCC[C@@H]1SC[C@@H]2NC(=O)N[C@@H]21)C(C)C)C(=O)N[C@@H](CO)C(=O)N[C@H](C(=O)N[C@@H](CCCNC(=N)N)C(=O)N[C@@H](CCCNC(=N)N)C(=O)N[C@@H](COP(=O)(O)O)C(=O)N[C@@H](Cc1ccc(O)cc1)C(=O)N[C@@H](COP(=O)(O)O)C(=O)N[C@@H](CO)C(=O)N[C@@H](CO)C(=O)N[C@@H](CO)C(=O)NCC(=O)N[C@@H](CO)C(N)=O)C(C)C` [Ser17,19SerP] (Biotin-YSSYSAPVSSSLSVRR[pS]Y[pS]SSSGS-NH2), in data set [2], the “Cell penetration / internalization in T98G cells (in words)” value is “decreased internalization” and the “Peptide incorporation (% of cells)” value is 32±2.1 % of cells. Also, in data set [3], the “Effect on MT network of T98G / glioma cells (in words)” value is “not altered” and the “Disintegration of MT (% of cells)” value is on record as 11.0±3.0 % of cells.
In the case of `CC(C)C[C@H](NC(=O)[C@H](CO)NC(=O)[C@H](CO)NC(=O)[C@H](CO)NC(=O)[C@@H](NC(=O)[C@@H]1CCCN1C(=O)[C@H](C)NC(=O)[C@H](C)NC(=O)[C@H](Cc1ccc(O)cc1)NC(=O)[C@H](CO)NC(=O)[C@H](CO)NC(=O)[C@H](Cc1ccc(O)cc1)NC(=O)CCCC[C@@H]1SC[C@@H]2NC(=O)N[C@@H]21)C(C)C)C(=O)N[C@@H](CO)C(=O)N[C@H](C(=O)N[C@@H](CCCNC(=N)N)C(=O)N[C@@H](CCCNC(=N)N)C(=O)N[C@@H](CO)C(=O)N[C@@H](Cc1ccc(O)cc1)C(=O)N[C@@H](CO)C(=O)N[C@@H](CO)C(=O)N[C@@H](CO)C(=O)N[C@@H](CO)C(=O)NCC(=O)N[C@@H](CO)C(N)=O)C(C)C` [Ser5Ala] (Biotin-YSSYAAPVSSSLSVRRSYSSSSGS-NH2), in data set [2], the “Peptide incorporation (% of cells)” value is recorded as 16.0±1.4 % of cells. In addition, in data set [3], the “Disintegration of MT (% of cells)” value is 23.6±1.6 % of cells.
The corresponding values for `CC(C)C[C@H](NC(=O)[C@H](CO)NC(=O)[C@H](CO)NC(=O)[C@H](CO)NC(=O)[C@@H](NC(=O)[C@@H]1CCCN1C(=O)[C@H](C)NC(=O)[C@H](CO)NC(=O)[C@H](Cc1ccc(O)cc1)NC(=O)[C@H](CO)NC(=O)[C@H](CO)NC(=O)[C@H](Cc1ccc(O)cc1)NC(=O)CCCC[C@@H]1SC[C@@H]2NC(=O)N[C@@H]21)C(C)C)C(=O)N[C@@H](CO)C(=O)N[C@H](C(=O)N[C@@H](CCCNC(=N)N)C(=O)N[C@@H](CCCCN)C(=O)N[C@@H](CO)C(=O)N[C@@H](Cc1ccc(O)cc1)C(=O)N[C@@H](CO)C(=O)N[C@@H](CO)C(=O)N[C@@H](CO)C(=O)N[C@@H](CO)C(=O)NCC(=O)N[C@@H](CO)C(N)=O)C(C)C` [Arg16Lys] (Biotin-YSSYSAPVSSSLSVRKSYSSSSGS-NH2) are 32.9±1.3 % of cells and 36.9±0.9 % of cells.
Take `CC(C)C[C@H](NC(=O)[C@H](CO)NC(=O)[C@H](CO)NC(=O)[C@H](CO)NC(=O)[C@@H](NC(=O)[C@H](C)NC(=O)[C@H](C)NC(=O)[C@H](CO)NC(=O)[C@H](Cc1ccc(O)cc1)NC(=O)[C@H](CO)NC(=O)[C@H](CO)NC(=O)[C@H](Cc1ccc(O)cc1)NC(=O)CCCC[C@@H]1SC[C@@H]2NC(=O)N[C@@H]21)C(C)C)C(=O)N[C@@H](CO)C(=O)N[C@H](C(=O)N[C@@H](CCCNC(=N)N)C(=O)N[C@@H](CCCNC(=N)N)C(=O)N[C@@H](CO)C(=O)N[C@@H](Cc1ccc(O)cc1)C(=O)N[C@@H](CO)C(=O)N[C@@H](CO)C(=O)N[C@@H](CO)C(=O)N[C@@H](CO)C(=O)NCC(=O)N[C@@H](CO)C(N)=O)C(C)C` [Pro7Ala] (Biotin-YSSYSAAVSSSLSVRRSYSSSSGS-NH2): in data set [2], the “Peptide incorporation (% of cells)” value is on record as 16.7±4.6 % of cells. Further, the “Disintegration of MT (% of cells)” value in data set [3] is 26.6±5.9 % of cells.

(Values after PMC3494675, “Structure-Function Analysis of the Glioma Targeting NFL-TBS.40-63 Peptide Corresponding to the Tubulin-Binding Site on the Light Neurofilament Subunit” (PLoS ONE, 2012).)
